Columns and labels:
Type in all cases: in vivo
[1] = test system: bean aphid (Aphis fabae Scop.); experiment: Bean aphid foliage spray test; parameters: key: A: excellent control; B: partial control; C: no control at 500 ppm; details: 500 parts per million, 24 hour
Description: (§1) Suspensions of the test compounds were prepared by dissolving one gram of compound in 50 milliliters of acetone in which had been dissolved 0.1 gram (10 percent of the weight of compound) of an alkylphenoxy polyethoxyethanol surfactant, as an emulsifying or dispersing agent. The resulting solution was mixed into 150 milliliters of water to give roughly 200 milliliters of a suspension containing the compound in finely divided form. The thus-prepared stock suspension contained 0.5 percent by weight of compound. The concentrations in parts per million by weight employed in the tests described hereinbelow were obtained by appropriate dilutions of the stock suspension with water. The test procedures were as follows:
Adults and nymphal stages of the bean aphid (Aphis fabae Scop.) reared on potted dwarf nasturtium plants at 68°-70° F. and 50±5 percent relative humidity, constituted the test insects. For testing purposes, the number of aphids per pot were standardized to 100-150 by trimming plants containing excess aphids.
The test compounds were formulated by diluting the stock suspension with water to give a suspension containing 500 parts of test compound per million parts of final formulation.
The potted plants (one pot per compound tested) infested with 100-150 aphids, were placed on a revolving turntable and sprayed with 100-110 milliliters of test compound formulation by use of a DeVilbiss spray gun set at 40 psig. air pressure. This application, which lasted 25 seconds, was sufficient to wet the plants to run-off. As a control, 100-110 milliliters of a water-acetone-emulsifier solution containing no test compound was also sprayed on infested plants. After spraying, the pots were placed on their sides on a sheet of white standard mimeograph paper which had been previously ruled to facilitate counting. Temperature and humidity in the test room during the 24 hour holding period were 68°-70° F. and 50±5 percent, respectively. Aphids which fell onto the paper and were unable to remain standing after being uprighted were considered dead. Aphids remaining on the plants were observed closely for movement and those which were unable to move the length of the body upon stimulation by prodding were considered dead.
(§2) In these tests the pesticidal activity of the compounds at the indicated dosage rate against aphid, Southern Armyworm, Bean Beetle and housefly was rated as follows: […]

[2] = test system: southern armyworm (Spodoptera eridania, (Cram.)) larvae; experiment: Southern armyworm leaf spray bait test; parameters: key: A: excellent control; B: partial control; C: no control at 500 ppm; details: 500 parts per million, three days
Description: as §1
Larvae of the southern armyworm (Spodoptera eridania, (Cram.)), reared on Tendergreen bean plants at a temperature of 80±5° F. and a reative humidity of 50±5 percent, constituted the test insects.
The test compounds were formulated by diluting the stock suspension with water to give a suspension containing 500 parts of test compound per million parts of final formulation. Potted Tendergreen bean plants of standard height and age were placed on a revolving turntable and sprayed with 100-110 milliliters of test compound formulation by use of a DeVilbiss spray gun set at 40 psig air pressure. This application, which lasted 25 seconds, was sufficient to wet the plants to run-off. As a control, 100-110 milliliters of a water-acetone-emulsifier solution containing no test compound were also sprayed on infested plants. When dry, the paired leaves were separated and each one was placed in a 9 centimeter Petri dish lines with moistened filter paper. Five randomly selected larvae were introduced into each dish and the dishes were closed. The closed dishes were labeled and held at 80°-85° F. for three days. Although the larvae could easily consume the whole leaf within twenty-four hours, no more food was added. Larvae which were unable to move the length of the body, even upon stimulation by prodding, were considered dead.
as §2

[3] = test system: egg of the Southern armyworm (Spodoptera eridania (Cram.)); experiment: Southern armyworm ovicide test; parameters: key: A: excellent control; B: partial control; C: no control at 500 ppm; details: 500 parts per million, egg dip, four days
Description: as §1
The test organism was the egg of the Southern armyworm (Spodoptera eridania (Cram.)) as obtained from adults reared on Tendergreen bean plants at a temperature of 80±5° F. and a relative humidity of 50±5 percent. The eggs were laid on freezer paper (Marlon 717, Copco paper) and then cut into small sections containing one or two egg masses.
The test compounds were formulated by diluting the stock suspension with water to give a suspension containing 500 parts of test compound per million parts of final formulation. The egg masses were then dipped until they were thoroughly wet (5-10 seconds). They were then placed on a paper towel face up and were allowed to dry for 15-30 minutes. The dry eggs were placed in a 15×60 mm petri dish containing a cotton dental wick saturated with a 5 percent sodium chloride solution to maintain a high level of humidity. The closed dishes were labeled and held at a temperature of 80±5° F. for four days. Larvae that emerged from the egg, even if dead at the time of observation, were recorded as hatched.
as §2

[4] = test system: Mexican bean beetle (Epilachna varivestis, Muls.) larvae; experiment: Mexican bean beetle leaf spray test; parameters: key: A: excellent control; B: partial control; C: no control at 500 ppm; details: 500 parts per million, fourth instar larvae, three days
Description: as §1
Fourth instar larvae of the Mexican bean beetle (Epilachna varivestis, Muls.), reared on Tendergreen bean plants at a temperature of 80±5° F. and 50±5° F. percent relative humdity, were the test insects.
The test compounds were formulated by diluting the stock suspension with water to give a suspension containing 500 parts of test compound per million parts of final formulation. Tendergreen bean plants of standard height and age were placed on a revolving turntable and sprayed with 100-110 milliliters of test compound formulation by use of a DeVilbiss spray gun set at 40 psig air pressure. This application, which lasted 25 seconds, was sufficient to wet the plants to run-off. As a control, 100-110 milliliters of a water-acetone-emulsifier solution containing no test compound was also sprayed on infested plants. When dry, the paired leaves were separated and each was placed in a 9 centimeter Petri dish lined with moistened filter paper. Five randomly selected larvae were introduced into each dish, and the dishes were closed. The closed dishes were labeled and held at a temperature of 80±5° F., for three days. Although the larvae could easily consume the leaf within 24 to 48 hours, no more food was added. Larvae which were unable to move the length of the body, even upon stimulation, were considered dead.
as §2

[5] = test system: house flies (Musca domestica, L.); experiment: Fly bait test; parameters: key: A: excellent control; B: partial control; C: no control at 500 ppm; details: 500 parts per million, sugar bait, twenty-four hours
Description: as §1
Four to six day old adult house flies (Musca domestica, L.), reared according to the specifications of the Chemical Specialties Manufacturing Association (Blue Book, McNair-Dorland Co., N.Y. 1954; pages 243-244, 261) under controlled conditions of 80±5° F. and 50±5 percent relative humidity, were the test insects. The flies were immobilized by anesthetizing them with carbon dioxide. Twenty-five immobilized individuals, males and females, were transferred to a cage consisting of a standard food strainer about five inches in diameter which was inverted over a wrapping-paper-covered surface. The test compounds were formulated by diluting the stock suspension with a 10 percent (by weight) sugar solution to give a suspension containing 500 parts of test compound per million parts of final formulation, by weight. Ten milliliters of the test formulation were added to a souffle cup containing a one-inch square of an absorbent cotton pad. This bait cup was introduced and centered on the blotting paper under the food strainer prior to admitting the anesthetized flies. The caged flies were allowed to feed on the bait for twenty-four hours, at a temperature of 80±5° F. and at a relative humidity of 50±5 percent.
as §2

[6] = test system: root-knot nematode, Meloidogyne incognita var. acrita; experiment: Nematocide test; parameters: key: 1: severe galling, equal to untreated plants; 2: moderate galling; 3: light galling; 4: very light galling; 5: no galling, perfect control; details: 3.33 m.g. per jar, cucumber, approximately 3 weeks
Description: The test organism used was the infective migratory larvae of the root-knot nematode, Meloidogyne incognita var. acrita, reared in the greenhouse on roots of cucumber plants. Infected plants were removed from the culture, and the roots were chopped very finely. A small amount of this inoculum was added to a pint jar containing approximately 180 cc. of soil. The jars were capped and incubated for one week at room temperature. During this period eggs of the nematode were hatched, and the larval forms migrated into the soil.
Ten ml. of the test formulation were added to each of the two jars for each dosage tested. Following the addition of chemical, the jars were capped, and the contents thoroughly mixed on a ball mill for […].
The test compounds were formulated by a standard procedure of solution in acetone addition of an emulsifier, and dilution with water. Primary screening tests were conducted at 3.33 m.g. of the test compound per jar.
The jars were left capped at room temperature for a period of 48 hours, and the contents then transferred to 3 inch pots. Subsequently, the pots were seeded to cucumber as an indicator crop and placed in the greenhouse where they were cared for in the normal fashion for approximately 3 weeks.
The cucumber plants were then taken from the pots, the soil removed from the roots, and the amount of galling visually rated.
In the test for activity against nematodes activity was rated as follows: […]

[7] = test system: housefly adults (Musca domestica); experiment: Comparative residual effect in soil; details: for Residual effect in soil (mortality), 0 weeks / Residual Activity (weeks): soil concentration four times LD50, housefly; for Residual effect in soil (mortality), 0 weeks: 24 hours; for Residual effect in soil (mortality), 1 week / Residual effect in soil (mortality), 4 weeks: soil concentration four times LD50, 25° C., 90% relative humidity; for Residual effect in soil (mortality), 1 week: 10080 min; for Residual effect in soil (mortality), 4 weeks: 40320 min
Description: Selected species of the new compounds were evaluated for their residual pesticidal activity in soil. […] The residual activity test were conducted using five to seven-day old housefly adults (Musca domestica).
The soil mixture used was one part agricultural soil and three parts sand. The agricultural soil was stored in plastic bags in a freezer, immediately after removal from the field. This was done to reduce microbial multiplication. Two weeks prior to use, the soil was thawed and held at room temperature to allow microbial population to equilibrate. The sand and soil were sifted to remove clumps and debris and were then blended by rolling on a roller mill in a closed metal container. The moisture level was adjusted to 15% by weight.
The concentration in the soil of the compound to be tested was four times the amount (in parts per million) necessary to achieve a mortality rate of 50% on contact with the soil (LD50). This is in accordance with the procedure developed by C. R. Harris of the Research Institute, Canadian Department of Agriculture, London, Ontario. Such procedure is disclosed in "Biological Activity of Chloropyrifos, Chlorpyrifor-Methyl, Phorate, and Counter® in Soil", The Canadian Entomologist, Vol. 109, pp. 1115-1120 (August 1977); and in "Laboratory Studies on the Persistance of Biological Activity of Some Insecticides in Soils", Journal of Economic Entomology, Vol. 62, No. 6, pp. 1437-1441 (December 1969).
An appropriate amount of compound was dissolved in an acetone--Triton solution and was diluted with water. Five mililiters of the formulated chemical was applied to four ounces of soil mixture and rolled in a 16-ounce glass jar to blend the compound evenly with the soil. Ten mililiters of granular cane sugar was then mixed thoroughly with the treated soil in an eight-ounce plastic container.
Twenty-five housefly adults, anesthetized with CO2, were then transferred to the soil and were covered with a perforated plastic lid. The test containers were held for 24 hours in a constant environment at a temperature of 80±5° F. and a relative humidity of […]. Mortality was based on the ability of the fly to move in a normal manner without spinning.
The above process was repeated on treated soil which had been incubated at 25° C. and 90% relative humidity for 1, 4, 6 and 8 weeks after initial exposure. This was necessary because the soil is incubated without sugar, sugar being added at the time of reinfestation. For this reason, appropriate volumes of soil had to be treated at the start of the soil test to last for the expected residual period.

CSC(C)=NOC(=O)N(C)SN(C)C(=O)Oc1cc(C)c(C)cc1C(C)=O [Compound 9]
Aphids, pesticidal activity rating [1]: A | Southern Armyworm, pesticidal activity rating [2]: A | Southern Armyworm (egg), pesticidal activity rating [3]: A | Mexican Bean Beetle, pesticidal activity rating [4]: A | Housefly, pesticidal activity rating [5]: A | Root-Knot Nematode, galling rating [6]: 1

CSC(C)=NOC(=O)N(C)SN(C)C(=O)Oc1ccc(C(C)=O)cc1 [Compound 2]
Aphids, pesticidal activity rating [1]: A | Southern Armyworm, pesticidal activity rating [2]: A | Southern Armyworm (egg), pesticidal activity rating [3]: A | Mexican Bean Beetle, pesticidal activity rating [4]: A | Housefly, pesticidal activity rating [5]: A | Root-Knot Nematode, galling rating [6]: 5

CSC(C)=NOC(=O)N(C)SN(C)C(=O)Oc1ccc(C(=O)O)cc1 [Compound 4, S-Methyl-N-[[[N'-[[N"-[(4-hydroxycarbonylphenoxy)carbonyl]-N"-methylaminosulfenyl]]-N'-methylcarbamoyloxy]]]thioacetimidate]
Aphids, pesticidal activity rating [1]: B | Southern Armyworm, pesticidal activity rating [2]: A | Mexican Bean Beetle, pesticidal activity rating [4]: A | Housefly, pesticidal activity rating [5]: A

CSC(C)=NOC(=O)N(C)SN(C)C(=O)Oc1ccc(C(C)=O)c(C)c1 [Compound 7]
Aphids, pesticidal activity rating [1]: A | Southern Armyworm, pesticidal activity rating [2]: A | Southern Armyworm (egg), pesticidal activity rating [3]: A | Mexican Bean Beetle, pesticidal activity rating [4]: A | Housefly, pesticidal activity rating [5]: A | Root-Knot Nematode, galling rating [6]: 5

CSC(C)=NOC(=O)N(C)SN(C)C(=O)Oc1cc(C)c(C)c(C)c1 [B]
Residual effect in soil (mortality), 0 weeks [7]: 100 | Residual effect in soil (mortality), 1 week [7]: 100 | Residual effect in soil (mortality), 4 weeks [7]: 0 | Residual Activity (weeks) [7]: less than 4 weeks

CSC(C)=NOC(=O)N(C)SN(C)C(=O)Oc1cccc(C)c1 [A]
Residual effect in soil (mortality), 0 weeks [7]: 100 | Residual effect in soil (mortality), 1 week [7]: 100 | Residual effect in soil (mortality), 4 weeks [7]: 23 | Residual Activity (weeks) [7]: less than 4 weeks

CNC(=O)ON=C(C)SC [Methomyl, methyl N[[(methylamino)carbonyl]oxy]ethanimidothioate]
Residual effect in soil (mortality), 0 weeks [7]: 100 | Residual effect in soil (mortality), 1 week [7]: 100 | Residual effect in soil (mortality), 4 weeks [7]: 15 | Residual Activity (weeks) [7]: less than 4 weeks

From patent publication US4496591A, “Insecticidal bis-carbamate sulfides” (priority 1981, dated 1985)
